Read-outs that look alike come from different tables or passages of the source.
Experiments:
[1] = target: T1, human TLR8 (Homo sapiens, UniProt Q9NR97); experiment: HEK-293 human TLR8 NF-kappaB luciferase reporter assay (CL097); format: cell-based
T1 construct: host or cells: HEK-293, then stably transfected with pNiFty2(NF-kappaB)-luciferase reporter
T1 sequence (Q9NR97 27-1041): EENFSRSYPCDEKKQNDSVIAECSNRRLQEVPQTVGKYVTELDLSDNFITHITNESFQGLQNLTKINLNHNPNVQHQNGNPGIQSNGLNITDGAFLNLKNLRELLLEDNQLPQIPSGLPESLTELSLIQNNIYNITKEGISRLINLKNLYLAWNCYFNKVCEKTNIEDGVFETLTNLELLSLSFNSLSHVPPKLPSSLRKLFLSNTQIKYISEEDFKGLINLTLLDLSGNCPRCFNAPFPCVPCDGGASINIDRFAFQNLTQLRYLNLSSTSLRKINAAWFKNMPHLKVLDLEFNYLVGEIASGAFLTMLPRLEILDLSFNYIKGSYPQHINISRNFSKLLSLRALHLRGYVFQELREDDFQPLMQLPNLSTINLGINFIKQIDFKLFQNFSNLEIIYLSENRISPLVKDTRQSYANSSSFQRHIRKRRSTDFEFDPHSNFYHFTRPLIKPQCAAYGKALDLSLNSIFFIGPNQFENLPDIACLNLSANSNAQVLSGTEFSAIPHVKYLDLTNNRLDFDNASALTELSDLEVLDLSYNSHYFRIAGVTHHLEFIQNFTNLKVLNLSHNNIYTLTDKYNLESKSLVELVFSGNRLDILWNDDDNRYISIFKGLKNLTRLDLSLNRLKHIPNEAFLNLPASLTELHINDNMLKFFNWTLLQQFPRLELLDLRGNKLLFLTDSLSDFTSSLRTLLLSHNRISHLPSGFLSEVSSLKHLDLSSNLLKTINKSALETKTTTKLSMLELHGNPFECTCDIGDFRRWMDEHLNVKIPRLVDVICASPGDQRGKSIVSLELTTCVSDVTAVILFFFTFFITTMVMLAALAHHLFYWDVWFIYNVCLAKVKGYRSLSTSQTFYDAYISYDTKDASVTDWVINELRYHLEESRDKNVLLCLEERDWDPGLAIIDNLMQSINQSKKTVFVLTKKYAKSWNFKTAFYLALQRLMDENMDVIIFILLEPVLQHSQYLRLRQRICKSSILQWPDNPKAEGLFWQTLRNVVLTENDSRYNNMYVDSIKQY
Experimental: Effects on mouse TLR7 were also compared. Cells were stimulated overnight with TLR7/8 agonist CL097 at pre-determined ED70-80: 3 ug/ml for HEK-hTLR7, 1.5 ug/ml for HEK-mTLR7 and 12 ug/ml for HEK-hTLR8, before reading luminescence intensity. Three tests were performed and IC50 value was determined using Graphpad Prism 6 nonlinear regression curve fit.
HEK-293 cells (ATCC) were engineered to stably express a NF-kappaB transcription factor inducible E-selectin (ELAM-1) luciferase reporter derived from the plasmid pGL3 (Promega) containing base pairs −2241 bp to −254 bp from the promoter of the human E-selectin gene (Accession No. NM_000450). These cells were then subsequently engineered to stably and individually express human TLR4, TLR7 or TLR9 full-length ORF cDNAs. Human TLR4 cDNA (Accession No. NM_138554) was cloned into pcDNA 3.0 expression vector (Invitrogen). TLR4 transfected cells were also engineered to express human MD-2 co-receptor [MD-2 cDNA (Accession No. NM_015364) was cloned into the pEF-BOS vector] and were supplemented with 10 nM soluble CD14 (R&D Systems) in the media to optimize LPS responsiveness. Human TLR9 cDNA (Accession No. NM_017442) was cloned into the pBluescript II KS vector (Agilent). Human TLR7 cDNA (Accession No. NM_016562) was obtained from OriGene. HEK-293 cells stably expressing human TLR8 (Accession No. NM_138636) or mouse TLR7 (Accession No. NM_133211) were purchased from InvivoGen and were then stably transfected with pNiFty2(NF-kappaB)-luciferase reporter plasmid (InvivoGen). Each cell type was plated in Dulbecco's modified Eagle's medium (DMEM) containing 10% fetal bovine serum (FBS) at a density of 2.22×10^5 cells/ml into a 384-well plate and incubated for 2 days at 37° C., 5% CO2. Varying concentrations of antagonist compounds were then added. Cells were then incubated for another 30 minutes before adding the appropriate TLR agonist as follows (final concentrations indicated): lipopolysaccharide (LPS; Sigma) at 10 ng/ml for TLR4, CL097 (InvivoGen) at 3 ug/ml for human TLR7 and TLR8 and mouse TLR7, and CvG-2006-2A [sequence: […] (SEQ ID NO: 1) with phosphorothioate backbone, synthesized by Sigma-Aldrich] at 0.6 uM for TLR9.

[2] = test system: Human TLR7/8; experiment: Human PBMC cell-based assay, TLR7/8 stimulus (RNA-Ig), cytokine ELISA; details: primary human PBMC assay, TLR7/8 potency; ligand not given; read-out: Human PBMCs IC50
Procedure, shortened: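 The agonist was RNA-Ig, a U1 snRNA-derived 26-mer RNA (2.5 μM) complexed with RNA-cross-reacting anti-ssDNA mAb (1:25 or 1 ug/ml), added after 30 min compound pre-incubation (0.1% DMSO). Density-gradient PBMC from healthy donors, 2×10^5/well, were stimulated 20 h at 37 °C; cytokines quantified by ELISA.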

[3] = target: T2, mouse TLR7 (Mus musculus, UniProt P58681); experiment: Short-term in vivo (STIV) assay: oral dosing, R848 s.c., plasma IL-6; set-up: female BALB/c mice (Jackson Labs, Bar Harbor, Me.) were dosed by oral gavage; tissue Jackson Labs; host or cells: living female BALB/c mice; plasma IL-6 after s.c. R848; details: 100 mg/kg
T2 sequence (P58681 27-1050): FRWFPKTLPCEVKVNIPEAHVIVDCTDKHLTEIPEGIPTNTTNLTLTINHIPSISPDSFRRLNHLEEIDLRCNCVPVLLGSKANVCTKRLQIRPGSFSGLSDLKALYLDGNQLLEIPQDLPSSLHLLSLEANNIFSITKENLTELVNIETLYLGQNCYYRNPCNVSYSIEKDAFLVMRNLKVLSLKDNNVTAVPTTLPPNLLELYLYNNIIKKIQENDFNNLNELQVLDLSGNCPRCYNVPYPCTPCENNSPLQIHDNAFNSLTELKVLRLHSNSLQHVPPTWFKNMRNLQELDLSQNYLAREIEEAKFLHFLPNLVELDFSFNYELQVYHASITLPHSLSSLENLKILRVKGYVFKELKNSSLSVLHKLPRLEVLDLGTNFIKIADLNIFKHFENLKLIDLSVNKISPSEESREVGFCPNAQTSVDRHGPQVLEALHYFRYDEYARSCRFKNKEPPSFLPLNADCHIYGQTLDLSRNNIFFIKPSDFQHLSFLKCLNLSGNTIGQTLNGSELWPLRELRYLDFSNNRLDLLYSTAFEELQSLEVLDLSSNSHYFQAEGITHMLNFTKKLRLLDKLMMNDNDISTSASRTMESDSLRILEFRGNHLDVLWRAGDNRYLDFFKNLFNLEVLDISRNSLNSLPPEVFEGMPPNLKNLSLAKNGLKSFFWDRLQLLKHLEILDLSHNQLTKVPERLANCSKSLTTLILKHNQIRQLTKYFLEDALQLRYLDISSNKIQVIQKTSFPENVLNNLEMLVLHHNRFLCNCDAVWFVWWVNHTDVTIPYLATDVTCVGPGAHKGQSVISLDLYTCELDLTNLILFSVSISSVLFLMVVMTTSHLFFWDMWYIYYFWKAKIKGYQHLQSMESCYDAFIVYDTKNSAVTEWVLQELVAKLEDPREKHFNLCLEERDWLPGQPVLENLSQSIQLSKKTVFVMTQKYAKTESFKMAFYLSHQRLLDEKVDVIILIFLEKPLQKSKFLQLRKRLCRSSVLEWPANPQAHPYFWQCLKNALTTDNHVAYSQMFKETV
Procedure, shortened: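 Female BALB/c mice (6–8 weeks) dosed orally with compound in 0.5% aqueous methyl-cellulose at 33, 100 or 300 mg/kg; at various times afterwards given 15 ug R848 s.c. to stimulate TLR7. Plasma IL-6 measured by ELISA to gauge potency and duration of action.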

[4] = HEK-293 assay format, read-out: HEK/hTLR8 IC50

IC50 [1, 4]	Structure (SMILES)	IC50 [2]	also measured
5 nM	CCCCC(O)C1CN(c2ccc(C#N)c3ncccc23)CC(C)O1 (single isomer, unassigned) [ER-886530]	–	–
30 nM	CC1CN(c2ccc(C#N)c3ncccc23)CC(C(O)C2CCCCC2)O1 (single isomer, unassigned) [ER-886532]	–	–
14 nM	CC1CN(c2ccc(C#N)c3ncccc23)CC(C(O)C2CCCCC2)O1 (single isomer, unassigned) [ER-886533]	–	–
80 nM	C[C@@H]1CN(c2ccc(C#N)c3ncccc23)C[C@H](CNC(=O)C(C)(C)C)O1 [ER-879713]	–	–
10 nM	C[C@H]1CN(c2ccc(C#N)c3ncccc23)C[C@H](C)O1 [ER-880191]	–	–
11 nM	COc1ccc(N2C[C@@H](C)O[C@@H](C)C2)c2cccnc12 [ER-885113]	–	–
25 nM	C[C@@H]1CN(c2ccc(C#N)c3ncccc23)C[C@H](CF)O1 [ER-885621]	–	–
37 nM	CC(C)COC[C@H]1CN(c2ccc(C#N)c3ncccc23)C[C@@H](C)O1 [ER-885892]	–	–
147 nM	C[C@@H]1CN(c2ccc(C#N)c3ncccc23)C[C@H](COCC2CCCCC2)O1 [ER-885930]	–	–
182 nM	C[C@@H]1CN(c2ccc(C#N)c3ncccc23)C[C@H](CN2CCCC2)O1 [ER-886507]	–	–
–	C[C@@H]1CN(c2ccc(C#N)c3ncccc23)C[C@H](CNCc2ccccc2)O1 [ER-886509]	–	IC50 ([1]; HEK/hTLR8 IC50, HEK-293 assay format): 119 nM
5 nM	C[C@@H]1CN(c2ccc(C#N)c3ncccc23)C[C@H](COc2ccccc2)O1 [ER-886514]	–	–
193 nM	C[C@@H]1CN(c2ccc(C#N)c3ncccc23)C[C@H](CNC2CCCCCC2)O1 [ER-887444]	–	–
0.5 nM	CC1CCCCC1NC[C@H]1CN(c2ccc(C#N)c3ncccc23)C[C@@H](C)O1 (stereo partly shown) [ER-887539]	–	–
11 nM	C[C@@H]1CN(c2ccc(C#N)c3ncccc23)C[C@H](CN2CCC[C@@H](N)C2)O1 [ER-887928]	–	–
–	C[C@@H]1CN(c2ccc(C#N)c3ncccc23)C[C@H](C(=O)N(C)[C@@H]2CCCNC2)O1 [ER-899616]	54 nM	% Suppression vs. Vehicle ([3]; 6 h): 79%; % Suppression vs. Vehicle ([3]; 13 h): 27%
–	C[C@@H]1CN(c2ccc(C#N)c3ncccc23)C[C@H](C(=O)N(C)[C@H]2CCCNC2)O1 [ER-899619]	33 nM	% Suppression vs. Vehicle ([3]; 6 h): 79%; % Suppression vs. Vehicle ([3]; 13 h): 35%
–	CC1CN(c2ccc(C#N)c3ncccc23)CC(C(=O)NC2CCCN(C)C2)O1 (stereo not shown) [ER-899688]	11 nM	% Suppression vs. Vehicle ([3]; 6 h): 10%; % Suppression vs. Vehicle ([3]; 13 h): 96%
–	C[C@@H]1CN(c2ccc(C#N)c3ncccc23)C[C@H](C(=O)N[C@@H]2CNC[C@@H]2F)O1.Cl [ER-899745]	4 nM	% Suppression vs. Vehicle ([3]; 6 h): 100%; % Suppression vs. Vehicle ([3]; 13 h): 5%

Structure (SMILES)	IC50 [1, 4]	IC50 [2]	also measured
CC1CN(c2ccc(C#N)c3ncccc23)CC(CN2CCCC2C(C)C)O1 (mixture of isomers) [ER-886816]	107 nM	–	–
CC1CN(c2ccc(C#N)c3ncccc23)CC(CNC2CCCC2O)O1 (mixture of isomers) [ER-887528]	135 nM	56 nM	–
C=CC(O)[C@H]1CN(c2ccc(C#N)c3ncccc23)C[C@@H](C)O1 (single isomer, unassigned) [ER-886431]	31 nM	–	–
CC1CN(c2ccc(C#N)c3ncccc23)CC(C(O)CCc2ccccc2)O1 (single isomer, unassigned) [ER-886567]	5 nM	22 nM	–
CC1CN(c2ccc(C#N)c3ncccc23)CC(C(O)CCc2ccccc2)O1 (single isomer, unassigned) [ER-886568]	5 nM	79 nM	–
N#Cc1ccc(N2CCOC(CCl)C2)c2cccnc12 (stereo not shown) [ER-879484]	18 nM	–	–
COC[C@H]1CN(c2ccc(C#N)c3ncccc23)C[C@@H](C)O1 [ER-885612]	55 nM	614 nM	–
C[C@@H]1CN(c2ccc(C#N)c3ncccc23)C[C@H](COCc2ccccc2)O1 [ER-885618, 5-((2R,6R)-2-((benzyloxy)methyl)-6-methylmorpholino)quinoline-8-carbonitrile]	5 nM	23 nM	–
CCN(CC)C[C@H]1CN(c2ccc(C#N)c3ncccc23)C[C@@H](C)O1 [ER-886508]	186 nM	–	–
C[C@@H]1CN(c2ccc(C#N)c3ncccc23)C[C@H](C(=O)CCc2ccccc2)O1 [ER-886629]	5 nM	–	–
C[C@@H]1CN(c2ccc(C#N)c3ncccc23)C[C@H](CN2CC[C@@H](c3ccccc3)C2)O1 [ER-886818]	81 nM	–	–

From USRE47193E1, “Selectively substituted quinoline compounds” (EISAI R&D MANAGEMENT CO., LTD., priority 2013, dated 2019)
